pIC50: −log10 of the molar value. Active and inactive are the calls of the source. No cut-off for these calls is given here.
Legend:
Rattus norvegicus [1] = experiment: In vivo percent change in the total cholesterol after consumption of a single high fat, high cholesterol meal by rats; format: functional
O-acyltransferase = O-acyltransferase (Oryctolagus cuniculus, UniProt G1SFD9); experiment: In vitro inhibitory activity against Acyl coenzyme A:cholesterol acyltransferase in intestinal microsomes isolated from cholesterol fed rabbits (IAI).; parameters: species or system Intestine
Rattus norvegicus [2] = experiment: Tested for the percentage change in non HDL-C in pre-established hypercholesterolemia (CPCC) model fat at a dose of 3 mg/kg (p<0.05); format: functional
Rattus norvegicus [3] = experiment: Tested for the percentage change in HDL in pre-established hypercholesterolemia (CPCC) model at a dose of 3 mg/kg (p<0.05); format: functional
Rattus norvegicus [4] = experiment: Tested for the percentage change in HDL in pre-established hypercholesterolemia (CPCC) model at a dose of 10 mg/kg (p<0.05); format: functional
Rattus norvegicus [5] = experiment: Tested for the percentage change in non HDL-C in pre-established hypercholesterolemia (CPCC) model at a dose of 1 mg/kg (p<0.05); format: functional
Rattus norvegicus [6] = experiment: Tested for the percentage change in non HDL-C in pre-established hypercholesterolemia (CPCC) model at dose of 10 mg/kg (p<0.05); format: functional
Rattus norvegicus [7] = experiment: Tested for the percentage change in HDL in pre-established hypercholesterolemia (CPCC) model at a dose of 1 mg/kg (p<0.05); format: functional
Rattus norvegicus [8] = experiment: Tested for the percentage change in non HDL-C in pre-established hypercholesterolemia (CPCC) model fat at a dose of 1 mg/kg; format: functional
Rattus norvegicus [9] = experiment: Tested for the percentage change in non HDL-C in pre-established hypercholesterolemia (CPCC) model at dose of 3 mg/kg.; format: functional
Rattus norvegicus [10] = experiment: Tested for the percentage change in non HDL-C in pre-established hypercholesterolemia (CPCC) model at a dose of 0.1 mg/kg; format: functional
Rattus norvegicus [11] = experiment: Tested for the percentage change in HDL in pre-established hypercholesterolemia (CPCC) model at a dose of 3 mg/kg.; format: functional
Rattus norvegicus [12] = experiment: Tested for the percentage change in HDL in pre-established hypercholesterolemia (CPCC) model at a dose of 1 mg/kg; format: functional
Rattus norvegicus [13] = experiment: Tested for the percentage change in HDL in pre-established hypercholesterolemia (CPCC) model at a dose of 0.1 mg/kg; format: functional
Rattus norvegicus [14] = experiment: Tested for the percentage change in HDL in pre-established hypercholesterolemia (CPCC) model fat at a dose of 30 mg/kg; format: functional
Rattus norvegicus [15] = experiment: Tested for the percentage change in non HDL-C in pre-established hypercholesterolemia (CPCC) model at a dose of 30 mg/kg; format: functional
Rattus norvegicus [16] = experiment: Tested for the percentage change in HDL in pre-established hypercholesterolemia (CPCC) model at a dose of 10 mg/kg.; format: functional
Rattus norvegicus [17] = experiment: Tested for the percentage change in non HDL-C in pre-established hypercholesterolemia (CPCC) model fat at a dose of 3 mg/kg; format: functional
Rattus norvegicus [18] = experiment: Tested for the percentage change in non HDL-C in pre-established hypercholesterolemia (CPCC) model at dose of 10 mg/kg.; format: functional
Rattus norvegicus [19] = experiment: Tested for the percentage change in HDL in pre-established hypercholesterolemia (CPCC) model at a dose of 1 mg/kg; No change; format: functional, organism-based; parameters: dose 1 mg/kg
Rattus norvegicus [20] = experiment: Tested for the percentage change in non HDL-C in pre-established hypercholesterolemia (CPCC) model at a dose of 1 mg/kg; format: functional
Rattus norvegicus [21] = experiment: Tested for the percentage change in HDL in pre-established hypercholesterolemia (CPCC) model at a dose of 3 mg/kg; format: functional
Rattus norvegicus [22] = experiment: Tested for the percentage change in non HDL in pre-established hypercholesterolemia (CPCC) model fat at a dose of 30 mg/kg; format: functional
Rattus norvegicus [23] = experiment: Tested for the percentage change in non HDL in pre-established hypercholesterolemia (CPCC) model fat at a dose of 30 mg/kg; Non significant; format: functional, organism-based; parameters: dose 30 mg/kg

O-acyltransferase, sequence (G1SFD9 1-524): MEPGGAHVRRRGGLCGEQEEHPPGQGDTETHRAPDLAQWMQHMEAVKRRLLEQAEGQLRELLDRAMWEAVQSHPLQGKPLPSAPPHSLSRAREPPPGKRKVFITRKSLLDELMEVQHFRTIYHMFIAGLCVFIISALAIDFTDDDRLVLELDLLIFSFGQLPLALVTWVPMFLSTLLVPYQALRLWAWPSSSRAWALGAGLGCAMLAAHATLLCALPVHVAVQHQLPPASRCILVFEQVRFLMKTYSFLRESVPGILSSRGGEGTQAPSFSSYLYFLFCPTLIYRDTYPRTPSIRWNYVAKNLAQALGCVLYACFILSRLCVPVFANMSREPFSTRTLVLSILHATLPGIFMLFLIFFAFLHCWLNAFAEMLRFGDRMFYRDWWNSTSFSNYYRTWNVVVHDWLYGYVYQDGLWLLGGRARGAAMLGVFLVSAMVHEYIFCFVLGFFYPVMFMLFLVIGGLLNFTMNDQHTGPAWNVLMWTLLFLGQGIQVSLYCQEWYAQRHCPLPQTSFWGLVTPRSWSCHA

Row | pIC50 (O-acyltransferase) | SMILES | Change (Rattus norvegicus [1]) | further results
1 | 6.59 | CCCCCCCCOC(=O)CC(=O)Nc1c(C(C)C)cccc1C(C)C | -43% | 
2 | 7.96 | CCCCCCCCCCCCCCC(C)OC(=O)CC(=O)Nc1c(C(C)C)cccc1C(C)C (stereo not given) | -60% | Change (Rattus norvegicus [8]): 7%; Change (Rattus norvegicus [9]): -2%; Change (Rattus norvegicus [10]): -8%; Change (Rattus norvegicus [11]): -24%; Change (Rattus norvegicus [12]): 13%; Change (Rattus norvegicus [13]): -12%
3 | 7.28 | CCCCCCCCCCOC(=O)CC(=O)Nc1c(C(C)C)cccc1C(C)C | -37% | 
4 | 8.40 | CCCCCCCCCCCC[C@@H](C)OC(=O)CC(=O)Nc1c(C(C)C)cccc1C(C)C | -67% | 
5 | 7.28 | CCCCCCCCCCCCCCCCCCOC(=O)CC(=O)Nc1c(C(C)C)cccc1C(C)C | -16% | 
6 | 7.46 | CCCCCCCCCCCCCCCCOC(=O)CC(=O)Nc1c(C(C)C)cccc1C(C)C | -56% | 
7 | 6.09 | CCCCCCOC(=O)CC(=O)Nc1c(C(C)C)cccc1C(C)C | -29% | 
8 | 7.92 | CCCCCCCCCCCCC(C)(C)OC(=O)CC(=O)Nc1c(C(C)C)cccc1C(C)C | -72% | Change (Rattus norvegicus [8]): -19%; Change (Rattus norvegicus [9]): -19%; Change (Rattus norvegicus [10]): -11%; Change (Rattus norvegicus [11]): -13%; Change (Rattus norvegicus [12]): 6%; Change (Rattus norvegicus [13]): -12%
9 | 7.96 | CCCCCCCCCCCCOC(=O)CC(=O)Nc1c(C(C)C)cccc1C(C)C | -52% | Change (Rattus norvegicus [14]): -21%; Change (Rattus norvegicus [15]): -8%
10 | 8.40 | CCCCCCCCCCCC[C@H](C)OC(=O)CC(=O)Nc1c(C(C)C)cccc1C(C)C | -66% | 
11 | 8.22 | CCCCCCCCCCC(C)OC(=O)CC(=O)Nc1c(C(C)C)cccc1C(C)C (stereo not given) | -70% | Change (Rattus norvegicus [16]): 29%; Change (Rattus norvegicus [17]): -40%; Change (Rattus norvegicus [18]): -51%; Change (Rattus norvegicus [19]): inactive; Change (Rattus norvegicus [20]): -15%; Change (Rattus norvegicus [21]): 36%
12 | 7.82 | CCCCCCCCCCCCCCOC(=O)CC(=O)Nc1c(C(C)C)cccc1C(C)C | -61% | Change (Rattus norvegicus [22]): 6%; Change (Rattus norvegicus [15]): -11%

The next lines start with the compound.

Row | SMILES | pIC50 (O-acyltransferase) | Change (Rattus norvegicus [1]) | further results
13 | CC(C)c1cccc(C(C)C)c1NC(=O)CC(=O)OC(C)(C)C | 6.89 | -24% | 
14 | CCCCCCCCCCCCC(C)OC(=O)CC(=O)Nc1c(C(C)C)cccc1C(C)C (stereo not given) |  | -54% | Change (Rattus norvegicus [2]): -73%; Change (Rattus norvegicus [3]): 157%; Change (Rattus norvegicus [4]): 114%; Change (Rattus norvegicus [5]): -54%; Change (Rattus norvegicus [6]): -83%; Change (Rattus norvegicus [7]): 64%
15 | CCCCC(C)(C)OC(=O)CC(=O)Nc1c(C(C)C)cccc1C(C)C | 7.82 | -52% | 
16 | CC(C)c1cccc(C(C)C)c1OC(=O)CC(=O)Nc1ccc(F)cc1F | 5.19 |  | 
17 | CC(C)c1cccc(C(C)C)c1NC(=O)CC(=O)OC(c1ccccc1)c1ccccn1 (stereo not given) | < 5.30 |  | 
18 | CCCCCCCCC(C)OC(=O)CC(=O)Nc1c(C(C)C)cccc1C(C)C (stereo not given) | 7.92 | -61% | 
19 | CC(C)c1cccc(C(C)C)c1OC(=O)CC(=O)Nc1c(F)cc(F)cc1F | < 5.30 | -9% | 
20 | CC(C)c1cccc(C(C)C)c1OC(=O)CC(=O)Nc1ccccc1 | < 5.30 |  | 
21 | CC(C)c1cccc(C(C)C)c1OC(=O)CC(=O)Nc1c(F)cccc1F | 5.21 | 4% | 
22 | CCCCCC(C)OC(=O)CC(=O)Nc1c(C(C)C)cccc1C(C)C (stereo not given) | 7.57 | -46% | 
23 | COc1cc(OC)c(OC(=O)CC(=O)Nc2c(C(C)C)cccc2C(C)C)c(OC)c1 | 6.49 | -9% | 
24 | CC(C)c1cccc(C(C)C)c1NC(=O)CC(=O)Oc1c(-c2ccccc2)cccc1-c1ccccc1 | 7.17 | -41% | 
25 | CC(C)c1cccc(C(C)C)c1NC(=O)CC(=O)OC(c1ccccc1)c1ccccc1 | 7.42 | -41% | 
26 | CC(C)c1cccc(C(C)C)c1OC(=O)CC(=O)Nc1c(N(C)C)cccc1N(C)C | 7.15 | -29% | 
27 | CCOC(=O)CC(=O)Nc1c(C(C)C)cccc1C(C)C | 5.74 |  | 
28 | CC(C)c1cccc(C(C)C)c1NC(=O)CC(=O)Oc1c(C(C)C)cccc1C(C)C | 7.38 | <-50% | Change (Rattus norvegicus [23]): Not significant; Change (Rattus norvegicus [15]): 9%
29 | Cc1cccc(C)c1NC(=O)CC(=O)Oc1c(C(C)C)cccc1C(C)C | 6.68 | 5% | 
30 | COc1cc(OC)c(NC(=O)CC(=O)Oc2c(C(C)C)cccc2C(C)C)c(OC)c1 | 6.00 | -29% | 
31 | COc1cccc(OC)c1OC(=O)CC(=O)Nc1c(C(C)C)cccc1C(C)C | 5.77 | 5% | 
32 | CC(C)c1cccc(C(C)C)c1NC(=O)CC(=O)O | < 5.30 |  | 
33 | CC(C)c1cccc(C(C)C)c1NC(=O)CC(=O)OC(c1ccccn1)c1ccccn1 | < 5.30 | -55% | 
